Measured values from patent US20230373934A1, “ANDROGEN RECEPTOR MODULATORS AND METHODS FOR THEIR USE” (ESSA Pharma, Inc., priority 2022, published 2023).

Each compound was assayed against T1, androgen receptor (AR) (Homo sapiens, UniProt P10275, T878A) (assay: Androgen-induced PSA-luciferase assay, Luciferase Assay A (LNCaP transiently transfected with PSA (6.1 kb)-luciferase reporter)). Conditions: LNCaP cells, 1 h pretreatment, R1881 (1 nM) 24 h, read-out: PSA-Luc IC50 Range.
T1 construct: endogenous in cells; host or cells: LNCaP
T1 sequence (P10275 1-920 T878A): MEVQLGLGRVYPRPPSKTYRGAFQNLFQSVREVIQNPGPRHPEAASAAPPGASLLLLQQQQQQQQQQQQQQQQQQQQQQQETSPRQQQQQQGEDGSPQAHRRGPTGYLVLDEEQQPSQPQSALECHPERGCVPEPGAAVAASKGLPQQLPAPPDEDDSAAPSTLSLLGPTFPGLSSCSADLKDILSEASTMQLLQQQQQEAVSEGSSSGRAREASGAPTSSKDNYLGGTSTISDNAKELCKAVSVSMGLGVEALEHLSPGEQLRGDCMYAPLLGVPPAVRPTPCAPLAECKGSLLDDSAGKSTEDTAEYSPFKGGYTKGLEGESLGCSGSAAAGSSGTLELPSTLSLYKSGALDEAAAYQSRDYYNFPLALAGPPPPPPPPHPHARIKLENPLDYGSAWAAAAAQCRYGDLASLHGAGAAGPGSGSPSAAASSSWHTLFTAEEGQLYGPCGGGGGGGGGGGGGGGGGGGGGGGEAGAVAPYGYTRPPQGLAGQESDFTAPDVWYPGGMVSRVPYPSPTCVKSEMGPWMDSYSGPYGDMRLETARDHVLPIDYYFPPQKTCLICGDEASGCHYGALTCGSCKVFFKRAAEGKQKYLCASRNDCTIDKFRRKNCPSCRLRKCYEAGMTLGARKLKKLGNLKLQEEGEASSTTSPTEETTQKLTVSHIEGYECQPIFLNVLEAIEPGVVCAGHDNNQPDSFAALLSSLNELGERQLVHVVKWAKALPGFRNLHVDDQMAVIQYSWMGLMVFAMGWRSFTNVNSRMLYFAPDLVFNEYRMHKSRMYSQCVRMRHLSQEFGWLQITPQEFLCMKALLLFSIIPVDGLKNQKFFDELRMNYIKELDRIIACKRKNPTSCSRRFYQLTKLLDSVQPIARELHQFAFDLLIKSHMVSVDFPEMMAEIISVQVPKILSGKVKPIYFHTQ
Assay type: cell-based
Procedure: The PSA (6.1 kb)-luciferase reporter contains functional AREs (androgen response elements) to which AR binds in response to androgen to induce luciferase activity. LNCaP cells were transiently transfected with the PSA (6.1 kb)-luciferase reporter for 24 h, and then pretreated with vehicle (DMSO) or indicated concentration of representative compounds for one hour prior to the addition of synthetic androgen, R1881 (1 nM). After 24 h of incubation with R1881, the cells were harvested, and relative luciferase activities were determined (FIG. 1). To determine the IC50, treatments were normalized to vehicle control activity induced by R1881 (Table 2).
Luciferase Assay A: Cells were lysed using Passive Lysis Buffer (Promega) and then collected into V-bottom 96-well tissue culture plates. Lysates were centrifuged at 4° C. for 5 minutes at 3000 rpm. To measure luminescence of LNCaP cell lysates the Firefly Luciferase Assay System (Promega) was employed, according to manufacturer's protocol. Relative luminescence units (RLU) in cell lysates were detected for 10 seconds using Promega GloMax-Multi Detection Luminometer (Promega). Values were normalized to protein content. GraphPad Prism graphing software was used to calculate IC50 values. Luciferase Assay A was run for all compounds in Table 2 unless otherwise noted below.
Statistical analyses were performed using GraphPad Prism (Version 6.01 for Windows; La Jolla, CA, USA). Comparisons between treatment and control groups were compared using Two-Way ANOVA with post-hoc Dunnett's and Tukey's tests. Differences were considered statistically significant at P values less than 0.05.
For `CC(C)(c1ccc(OC[C@H]2C[C@@H](CNS(C)(=O)=O)C2)cc1)c1cc(Cl)c(OCCCl)c(C#N)c1` [Compound A74], the IC50 was 500 to 2000 nM.
`CC(C)(c1ccc(-c2cnc(NC3CN(S(C)(=O)=O)C3)nc2)cc1)c1cc(Cl)c(OCCCl)c(C#N)c1` [Compound A76] was tested, and the IC50 was 500 to 2000 nM.
In the case of `CC(C)(c1ccc(-c2cn([C@H]3C[C@H](NS(C)(=O)=O)C3)nn2)cc1)c1cc(Cl)c(OCCCl)c(C#N)c1` [Compound A77], the IC50 is reported as over 2000 nM.
Work on `CS(=O)(=O)N[C@H]1C[C@H](n2cc(-c3ccc(Oc4cc(Cl)c(OCCCl)c(C#N)c4)cc3)cn2)C1` [Compound A79] yielded an IC50 of over 2000 nM.
`CC(C)(c1ccc(Oc2ccnc(CNS(C)(=O)=O)n2)cc1)c1cc(Cl)c(OCCCl)c(C#N)c1` [Compound A85] showed an IC50 of 500 to 2000 nM.
`CC(C)(c1ccc(Oc2cnc(CNS(C)(=O)=O)nc2)cc1)c1cc(Cl)c(OCCCl)c(C#N)c1` [Compound A86] gave an IC50 of 500 to 2000 nM.
`CC(C)(c1ccc(Oc2ccnc(N3CC(NS(C)(=O)=O)C3)n2)cc1)c1cc(Cl)c(OCCCl)c(C#N)c1` [Compound A87] showed an IC50 of 500 to 2000 nM.
In the case of `CS(=O)(=O)Nc1cnc2cc(N3CCC(Oc4cc(Cl)c(OCCCl)c(C#N)c4)CC3)ccc2n1` [Compound A88], the IC50 is reported as over 2000 nM.
`CS(=O)(=O)Nc1cnc2cc(C3CCN(Cc4cc(Cl)c(OCCCl)c(C#N)c4)CC3)ccc2n1` [Compound A93] showed an IC50 of over 2000 nM.
With `CC(C)(c1ccc(-c2cnc(N3CC(CNS(C)(=O)=O)C3)nc2)cc1)c1cc(Cl)c(OCCCl)c(C#N)c1` [Compound A95] the IC50 was 500 to 2000 nM.
`CS(=O)(=O)NCC1CN(c2ncc(-c3ccc(Oc4cc(Cl)c(OCCCl)c(C#N)c4)cc3)cn2)C1` [Compound A96] showed an IC50 of under 500 nM.
In the case of `CS(=O)(=O)NC12CC(n3cc(-c4ccc(Oc5cc(Cl)c(OCCCl)c(C#N)c5)cc4)cn3)(C1)C2` [Compound A99], the IC50 is reported as 500 to 2000 nM.
For `CC(C)(c1ccc(OCc2ccnc(NS(=O)(=O)c3cccs3)n2)cc1)c1cc(Cl)c(OCCCl)c(C#N)c1` [Compound A100], the IC50 was 500 to 2000 nM.
`CC(C)(c1ccc(OCc2ccnc(NS(=O)(=O)c3ccsc3)n2)cc1)c1cc(Cl)c(OCCCl)c(C#N)c1` [Compound A101] gave an IC50 of 500 to 2000 nM.
With `C=COc1c(Cl)cc(C(C)(C)c2ccc(COc3ccnc(NS(C)(=O)=O)n3)cc2)cc1C#N` [Compound A102] the IC50 was over 2000 nM.
`CC(C)(c1ccc(OCc2ccnc(NS(=O)(=O)c3ccoc3)n2)cc1)c1cc(Cl)c(OCCCl)c(C#N)c1` [Compound A103] showed an IC50 of 500 to 2000 nM.
In the case of `CC(C)(c1ccc(OCc2ccnc(-n3cc(S(N)(=O)=O)cn3)n2)cc1)c1cc(Cl)c(OCCCl)c(C#N)c1` [Compound A104], the IC50 is reported as over 2000 nM.
With `Cn1ccc(S(=O)(=O)Nc2nccc(COc3ccc(C(C)(C)c4cc(Cl)c(OCCCl)c(C#N)c4)cc3)n2)n1` [Compound A105] the IC50 was 500 to 2000 nM.
`CC(C)(c1ccc(OCc2ccnc(-n3cnc(S(N)(=O)=O)c3)n2)cc1)c1cc(Cl)c(OCCCl)c(C#N)c1` [Compound A106] showed an IC50 of 500 to 2000 nM.
Compound `Cn1cnc(S(=O)(=O)Nc2nccc(COc3ccc(C(C)(C)c4cc(Cl)c(OCCCl)c(C#N)c4)cc3)n2)c1` [Compound A107] has an IC50 of over 2000 nM.
For `CC(C)(c1ccc(OCc2ccnc(-n3cnc(S(N)(=O)=O)n3)n2)cc1)c1cc(Cl)c(OCCCl)c(C#N)c1` [Compound A108], the IC50 was 500 to 2000 nM.
`CC(C)(c1ccc(OCc2ccnc(NS(=O)(=O)c3cccnc3)n2)cc1)c1cc(Cl)c(OCCCl)c(C#N)c1` [Compound A109] was tested, and the IC50 was over 2000 nM.
In the case of `CC(C)(c1ccc(OCc2ccnc(NS(=O)(=O)c3ccccn3)n2)cc1)c1cc(Cl)c(OCCCl)c(C#N)c1` [Compound A110], the IC50 is reported as 500 to 2000 nM.
`CC(C)(c1cc(Cl)c(OCCCl)c(C#N)c1)c1ccc(OCc2ccnc(NS(C)(=O)=O)n2)c(CN)c1` [Compound A111] was tested, and the IC50 was over 2000 nM.
Compound `CC(C)(C)OC(=O)N1CCN(Cc2cc(C(C)(C)c3cc(Cl)c(OCCCl)c(C#N)c3)ccc2OCc2ccnc(NS(C)(=O)=O)n2)CC1` [Compound A112] has an IC50 of 500 to 2000 nM.
With `CC(C)(c1cc(Cl)c(OCCCl)c(C#N)c1)c1ccc(OCc2ccnc(NS(C)(=O)=O)n2)c(CN2CCNCC2)c1` [Compound A113] the IC50 was over 2000 nM.
`CC(C)(c1ccc(OCc2cc(C3CCNCC3)nc(NS(C)(=O)=O)n2)cc1)c1cc(Cl)c(OCCCl)c(C#N)c1` [Compound A114] was tested, and the IC50 was over 2000 nM.
For `CC(C)(C)OC(=O)N1CCC(c2cc(COc3ccc(C(C)(C)c4cc(Cl)c(OCCCl)c(C#N)c4)cc3)nc(NS(C)(=O)=O)n2)CC1` [Compound A115], the IC50 was 500 to 2000 nM.
With `CC(C)(c1ccc(OCc2cc(N3CCNCC3)nc(NS(C)(=O)=O)n2)cc1)c1cc(Cl)c(OCCCl)c(C#N)c1` [Compound A116] the IC50 was over 2000 nM.
In the case of `CC(C)(C)OC(=O)N1CCN(c2cc(COc3ccc(C(C)(C)c4cc(Cl)c(OCCCl)c(C#N)c4)cc3)nc(NS(C)(=O)=O)n2)CC1` [Compound A117], the IC50 is reported as over 2000 nM.
`CC(C)(c1ccc(OCc2cnc(NS(C)(=O)=O)nc2N)cc1)c1cc(Cl)c(OCCCl)c(C#N)c1` [Compound A118, N-(4-amino-5-((4-(2-(3-chloro-4-(2-chloroethoxy)-5-cyanophenyl)propan-2-yl)phenoxy)methyl)pyrimidin-2-yl)methanesulfonamide] was tested, and the IC50 was under 500 nM.
With `CC(C)(c1cc(Cl)c(OCCCl)c(C#N)c1)c1ccc(OCc2ccnc(NS(C)(=O)=O)n2)c(CO)c1` [Compound A119] the IC50 was over 2000 nM.
In the case of `CS(=O)(=O)N1CCc2cc(-c3ccc(Oc4cc(Cl)c(OCCCl)c(C#N)c4)cc3)ccc2C1` [Compound A120], the IC50 is reported as over 2000 nM.
For `CC(C)(c1ccc(OCc2ccnc(NS(C)(=O)=O)n2)cc1)c1cc(Cl)c(OC2CC(F)(F)C2)c(C#N)c1` [Compound A121], the IC50 was 500 to 2000 nM.
`CS(=O)(=O)Nc1nccc(COc2ccc(Oc3cc(Cl)c(OCCCl)c(C#N)c3)cc2)n1` [Compound A122] gave an IC50 of over 2000 nM.
For `CS(=O)(=O)Nc1cnc2cc(-c3ncc(Oc4cc(Cl)c(OCCCl)c(C#N)c4)cn3)ccc2n1` [Compound A123], the IC50 was over 2000 nM.
Compound `CC(C)(c1ccc(-c2cnc3cc(NS(C)(=O)=O)ccc3n2)cc1)c1cc(Cl)c(OCCCl)c(C#N)c1` [Compound A124] has an IC50 of 500 to 2000 nM.
For `CC(C)(c1ccc(OCc2ccc(F)c(NS(C)(=O)=O)n2)cc1)c1cc(Cl)c(OCCCl)c(C#N)c1` [Compound A125], the IC50 was 500 to 2000 nM.
With `CC(C)(c1ccc(OCc2ccnc(NS(C)(=O)=O)n2)cc1)c1cc(Cl)c(N2CC3CC(C2)O3)c(C#N)c1` [Compound A126] the IC50 was over 2000 nM.
`CS(=O)(=O)Nc1nccc(COc2ccc(C(=O)c3cc(Cl)c(OCCCl)c(C#N)c3)cc2)n1` [Compound A128] was tested, and the IC50 was over 2000 nM.
`CC(C)(c1ccc(OCc2ccnc(NS(C)(=O)=O)n2)cc1)c1cc(Cl)c(CCO)c(C#N)c1` [Compound A129] gave an IC50 of over 2000 nM.
`CC(C)(c1ccc(OCc2cccc(NS(C)(=O)=O)c2F)cc1)c1cc(Cl)c(OCCCl)c(C#N)c1` [Compound A130] was tested, and the IC50 was 500 to 2000 nM.
For `CC(C)(c1ccc(OCc2ccc(F)c(NS(C)(=O)=O)c2)cc1)c1cc(Cl)c(OCCCl)c(C#N)c1` [Compound A131], the IC50 was 500 to 2000 nM.
In the case of `CC(C)(c1ccc(OCc2ccnc(NS(C)(=O)=O)n2)cc1)c1cc(Cl)c(N2CCC(F)(F)CC2)c(C#N)c1` [Compound A132], the IC50 is reported as over 2000 nM.
With `CC(C)(c1ccc(OCc2ccnc(NS(C)(=O)=O)n2)cc1)c1cc(Cl)c(N2CCC3(CC2)CC3)c(C#N)c1` [Compound A133] the IC50 was over 2000 nM.
`CC(C)(c1ccc(OCc2ccnc(NS(C)(=O)=O)n2)cc1)c1cc(Cl)c(N2CCN(CC(F)(F)F)CC2)c(C#N)c1` [Compound A134] was tested, and the IC50 was 500 to 2000 nM.
With `CN(c1nccc(Oc2ccc(C(C)(C)c3cc(Cl)c(OCCCl)c(C#N)c3)cc2)n1)S(C)(=O)=O` [Compound A135] the IC50 was 500 to 2000 nM.
`CC(C)(c1ccc(OCc2ccnc(NS(C)(=O)=O)n2)cc1)c1cc(Cl)c(CCCl)c(C#N)c1` [Compound A136] was tested, and the IC50 was 500 to 2000 nM.
With `CS(=O)(=O)N1CC2(CC(Oc3ccc(Oc4cc(Cl)c(OCCCl)c(C#N)c4)cc3)C2)C1` [Compound A137] the IC50 was 500 to 2000 nM.
